The nature of series [1]: Solubilization and gel formation of 2 wt% polychloroprene solution. The class given is physicochemical. Particulars: 2% by weight of polymer, rest for 24 hours. On the procedure: A polychloroprene solution was prepared in 2-methyl-2-ethyl-1,3-dioxolane at a concentration of 2% by weight of the polymer, which was allowed to rest for 24 hours. […] Gel formation usually takes place by using toluene or an aromatic hydrocarbon solvent, and was not expected in the case of oxygenated solvents, such as 2-methyl-2-ethyl-1,3-dioxolane.

For series [2] the following is noted: IARC, NTP, OSHA, ACGIH; cited from earlier work.
Series [3] has as its system rabbit. Particulars: cited from earlier work.
Series [4] has as its system rat. The conditions noted are these: 4 hours of exposure; cited from earlier work.
Series [5] deals with rabbit. The conditions noted are these: 24 hours of exposure; cited from earlier work.
Series [6] relates to rabbit. The conditions noted are these: 24 hours of exposure; cited from earlier work. This is another data set of the same source.
Series [7] relates to rat. Particulars: cited from earlier work.
Another series can be described thus: Water solubility. The class given is physicochemical. The conditions noted are these: heading: Water solubility.

In brackets after ≈: the same amount, converted by molar mass.

For `CCC1(C)OCCO1` [2-methyl-2-ethyl-1,3-dioxolane], in series [1], the Gel formation result was “formation of a gel was seen”. In series [2], the Carcinogenicity listing result is recorded as “not listed as carcinogenic”. In addition, the “DL50 (dermal rabbit)” value in the series on rabbit [3] is recorded as 10 mL/kg. In addition, the “LCLo/4 H (inhalation rat)” value with rat [4] is recorded as 4,000 ppm/4 H. The “LCLo/24H (eye irritation - rabbit)” value in the series on rabbit [5] was 500 mg/24 H. Moreover, the “LCLo/24 H (skin rash - rabbit)” value in the series on rabbit [6] was 500 mg/24 H. Also, in the series on rat [7], the “LD50 (oral rat)” value is 2,830 μL/kg. In “Water solubility”, this compound showed a solubility of 3260 µg/mL (≈ 28.1 mM).

The values are drawn from US9464215B2, “Use of a ketal as a solvent in adhesives and ketal-containing adhesive composition” (OXITENO S.A. INDÚSTRIA E COMÉRCIO, priority 2012, dated 2016).
